Measured values from paper PMC9541272, “Carba Analogues of Flupirtine and Retigabine with Improved Oxidation Resistance and Reduced Risk of Quinoid Metabolite Formation” (Chemmedchem, 2022).
“Also recorded” adds a separate entry of the source. Where two headings read alike, the source gives them in different places.

Experiments:
[1] = parameters: method as in guideline OPPTS 830.7570; settings: reference substances for calibration, Tables S1–S6; ref guideline OPPTS 830.7570; cited from earlier work
[2] = Cyclic voltammetry, anodic peak potential (oxidizability); assay type: physicochemical; settings: 0.1 M Tris‐HCl buffer pH 7.4, −0.5 to 1.0 V, sweep rate 0.1 V/s, –[b] = no oxidation observed in the specified potential range
[3] = tested on: TAMH mouse liver cell line; settings: mouse, 24 h
[4] = tested on: HEP‐G2 human hepatoma cell line; settings: human, 24 h
[5] = parameters: method as in PMID 25264565; settings: oral administration of 400 mg flupirtine, modified release dosage form once daily for 8 days; cited from earlier work
[6] = parameters: method as in earlier work; settings: severe but sporadic hepatotoxic events; cited from earlier work
KV7.2/3 channel [7] = molecular target: T1, KV7.2/3 channel (Homo sapiens, UniProt O43525+O43526); assay: KV7.2/3 channel opening activity, thallium-flux FLIPR Potassium Assay in HEK-293 cells overexpressing KV7.2/3; parameters: Emax: dose or concentration left out as unconfirmed; settings: for Emax: HEK293E, read-out: Efficacy; for KV7.2/3 opening activity (in words): HEK‐293 cells overexpressing KV7.2/3
T1 sequence (O43525 whole entry): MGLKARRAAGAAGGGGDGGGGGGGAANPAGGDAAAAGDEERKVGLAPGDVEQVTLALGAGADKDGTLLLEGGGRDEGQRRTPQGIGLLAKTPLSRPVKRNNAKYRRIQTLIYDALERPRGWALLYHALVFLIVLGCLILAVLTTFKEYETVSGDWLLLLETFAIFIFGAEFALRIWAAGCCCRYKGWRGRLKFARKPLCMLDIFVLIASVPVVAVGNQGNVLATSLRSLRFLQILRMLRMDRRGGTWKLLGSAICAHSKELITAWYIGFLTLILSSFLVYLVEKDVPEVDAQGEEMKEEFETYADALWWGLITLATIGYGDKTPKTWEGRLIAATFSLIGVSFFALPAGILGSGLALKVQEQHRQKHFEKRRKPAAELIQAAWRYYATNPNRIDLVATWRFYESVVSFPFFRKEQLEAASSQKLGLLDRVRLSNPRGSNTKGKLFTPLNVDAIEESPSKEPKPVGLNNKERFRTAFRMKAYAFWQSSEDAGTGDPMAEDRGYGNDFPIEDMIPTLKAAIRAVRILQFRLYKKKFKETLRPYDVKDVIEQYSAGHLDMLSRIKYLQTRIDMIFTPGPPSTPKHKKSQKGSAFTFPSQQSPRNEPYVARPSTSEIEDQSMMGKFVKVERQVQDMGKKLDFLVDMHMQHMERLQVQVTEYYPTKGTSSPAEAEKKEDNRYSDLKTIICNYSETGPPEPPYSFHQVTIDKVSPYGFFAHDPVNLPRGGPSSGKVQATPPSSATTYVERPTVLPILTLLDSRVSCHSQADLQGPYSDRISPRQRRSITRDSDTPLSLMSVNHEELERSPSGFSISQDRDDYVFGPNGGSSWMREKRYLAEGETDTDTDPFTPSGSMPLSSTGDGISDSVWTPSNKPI
T1 sequence (O43526 whole entry): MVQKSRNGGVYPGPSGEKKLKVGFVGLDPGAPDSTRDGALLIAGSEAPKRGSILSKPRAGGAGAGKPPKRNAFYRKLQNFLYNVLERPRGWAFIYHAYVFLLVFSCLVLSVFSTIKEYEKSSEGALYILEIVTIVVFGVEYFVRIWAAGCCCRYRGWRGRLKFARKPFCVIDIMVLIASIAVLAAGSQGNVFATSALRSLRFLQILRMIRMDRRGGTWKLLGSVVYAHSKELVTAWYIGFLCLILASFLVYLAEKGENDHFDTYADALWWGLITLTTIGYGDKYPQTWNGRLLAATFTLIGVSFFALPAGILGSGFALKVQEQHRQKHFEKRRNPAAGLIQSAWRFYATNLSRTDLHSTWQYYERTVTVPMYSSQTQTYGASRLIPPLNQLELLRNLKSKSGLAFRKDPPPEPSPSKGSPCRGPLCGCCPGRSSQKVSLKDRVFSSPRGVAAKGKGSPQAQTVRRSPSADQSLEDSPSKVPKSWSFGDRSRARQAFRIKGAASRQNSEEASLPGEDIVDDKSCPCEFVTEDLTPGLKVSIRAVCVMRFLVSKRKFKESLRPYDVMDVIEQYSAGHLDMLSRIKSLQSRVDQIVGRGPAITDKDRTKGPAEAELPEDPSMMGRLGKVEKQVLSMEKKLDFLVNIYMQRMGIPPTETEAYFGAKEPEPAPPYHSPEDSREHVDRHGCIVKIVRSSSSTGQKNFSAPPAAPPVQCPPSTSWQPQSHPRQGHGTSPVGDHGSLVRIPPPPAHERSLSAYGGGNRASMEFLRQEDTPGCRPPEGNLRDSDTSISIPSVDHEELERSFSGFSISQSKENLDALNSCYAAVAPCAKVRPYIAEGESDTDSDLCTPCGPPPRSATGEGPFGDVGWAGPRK

KV7.2/3 channel [8] = molecular target: T1, KV7.2/3 channel; parameters: method as in PMID 30990511; settings: previous work; cited from earlier work
[9] = LogD7.4 estimation by HPLC-based method; assay type: physicochemical; settings: for logD7.4 (single determination): calculated from retention time with one calibration function (A–F)
Method: The logarithm of the capacity factors of the reference substances was then plotted against the corresponding logP values taken from the mentioned guideline to obtain a calibration function. For non‐ionizable compounds like the reference substances used for calibration, logP values can be considered equivalent to the logD 7.4 values. To obtain a reference mixture, 2 mg of the reference substances were each dissolved in 1 mL of methanol, and 50 μL aliquots of each reference solution were subsequently combined. The reference mixture was measured before and after the substances to be tested, and the mean retention time from both measurements was used to calculate the calibration function. The calibration function was then used to determine the logD 7.4 values from the corresponding retention times for each substance to be tested. The compounds of interest were injected as a solution in methanol (2 mg/mL), and the retention time was determined as the mean value from two measurements.

[10] = pH 7.4, calculated from retention time with one calibration function (A–F), Table S7, read-out: logD7.4 (single determination)
[11] = pH 7.4, estimated by HPLC-based method, pH 7.4, read-out: LogD 7.4

SMILES: CCCC(=O)Nc1ccc(CNc2ccc(F)cc2)cn1 [compound 44, N ‐(5‐{[(4‐Fluorophenyl)amino]methyl}pyridin‐2‐yl)butyramide]
- melting point: 92 °C

SMILES: CCOC(=O)c1ccccc1 [Ethyl benzoate]
- logD (Lit.) [1]: 2.6

SMILES: CCOC(=O)Nc1ccc(NCc2ccc(F)cc2)nc1N [Flu, flupirtine]
- Ep.a. (anodic peak potential) [2]: 306 mV
- LD25 (concentration to reduce cell viability by 25 %) [3]: 103 ± 47 µM
- LD25 values (range over both liver cell lines) ([3]; human): 74 to 103 µM
- LD25 (concentration to reduce cell viability by 25 %) [4]: 74 ± 40 µM
- peak plasma concentration [5]: 1.6 µM
- reporting rate of hepatotoxic events [6]: 1.68 cases/100,000 patient‐years
- Emax (KV7.2/3 channel [7]): 100%

SMILES: CCOC(=O)Nc1ccc(NCc2ccc(F)cc2)nc1C [compound 6]
- KV7.2/3 opening potency (in words) (KV7.2/3 channel [8]): equipotent to flupirtine

SMILES: CCCC(=O)Nc1ccc(CNc2ccc(C)cn2)cc1C [35 f, N ‐(2‐Methyl‐4‐{[(5‐methylpyridin‐2‐yl)amino]methyl}phenyl)butyramide]
- logD7.4 (single determination) ([9]; Table S7): 2.263
- chromatographic logD [9, 10]: 2.29
- chromatographic logD [9, 11]: 2.3
- Ep.a. (anodic peak potential) [2]: 850 mV
- LD25 (concentration to reduce cell viability by 25 %) [3]: >125 µM
- LD50 (concentration to reduce cell viability by 50 %) [3]: >125 µM
- LD25 (concentration to reduce cell viability by 25 %) [4]: >125 µM
- LD50 (concentration to reduce cell viability by 50 %) [4]: >125 µM
- EC50 (KV7.2/3 channel [7]): 7.86 ± 2.17 µM
- Emax (KV7.2/3 channel [7]): 70 ± 9%
- KV7.2/3 opening activity (in words) (KV7.2/3 channel [7]): weakly active

SMILES: O=C(Oc1ccccc1)c1ccccc1 [Phenyl benzoate]
- logD (Lit.) [1]: 3.6

SMILES: Cc1cc(CNc2ccc(F)cc2)ccc1NC(=O)CCn1cccn1 [compound 53, N ‐(4‐{[(4‐Fluorophenyl)amino]methyl}‐2‐methylphenyl)‐3‐(1H ‐pyrazol‐1‐yl)propanamide]
- logD7.4 (single determination) ([9]; Table S7): 2.924
- chromatographic logD [9, 10]: 2.93
- chromatographic logD [9, 11]: 2.9
- Ep.a. (anodic peak potential) [2]: no anodic peak potential could be determined; also recorded: –^[b]
- LD25 (concentration to reduce cell viability by 25 %) [3]: >63 µM
- LD50 (concentration to reduce cell viability by 50 %) [3]: >63 µM
- LD25 (concentration to reduce cell viability by 25 %) [4]: >63 µM
- LD50 (concentration to reduce cell viability by 50 %) [4]: >63 µM
- EC50 (KV7.2/3 channel [7]): 2.36 ± 0.543 µM
- Emax (KV7.2/3 channel [7]): 144 ± 42%
- KV7.2/3 opening activity (in words) (KV7.2/3 channel [7]): fair KV7.2/3 opening activity
- fold decrease in potency compared to butanoylamino sidechain (35 a) (KV7.2/3 channel [7]; KV7.2/3 opening, ratio of EC50 values): 3.5 fold
